Measurements from patent US9517225B2, “Low dose lipoic acid pharmaceutical compositions and methods” (ENCORE HEALTH, LLC, priority 2008, dated 2016).

Columns and labels:
Assay type in all cases: cell-based
[1] = system: human umbilical vein endothelial cells (HUVEC, first passage); experiment: In vitro toxicology: cell viability, MultiTox-Fluor or Live/Dead assay; conditions: doses ranging from 0.1 μM to 100 μM
Protocol: Cell viability was determined using human umbilical vein endothelial cells (HUVEC, first passage). Cells were treated with the active agent in doses ranging from 0.1 μM to 100 μM. The number of live and dead cells was determined using the MultiTox-Fluor assay (Promega) or Live/Deadly® assay (Invitrogen). Logistic plots were used to determine the compound's LD50 value. Lipoic acid was not cytotoxic in the concentration range.

mouse lenses = experiment: Increase in elasticity: lens organ culture, change in lens diameter under coverslip (ΔD); conditions: mouse lenses incubated 8-15 hours, 0.5 μM to 500 μM tested, p<0.0001
Text: FIG. 4 depicts a scatter plot of the change in ΔD (micrometers) in the absence (control) and presence of lipoic acid in lens organ culture experiments. […] Statistical values are highly significant at p<0.0001 by unpaired t-test and by Kruskal Wallis test, which compared medians of each data set. The relative change in Young's modulus (E) can be calculated as the cubic value derived from the ΔD of the control divided by the ΔD of the experimental or E fractional change=(ΔD con/ΔDexp)^3.
Increase in Elasticity: Pairs of mouse lenses were incubated in medium 200 supplemented with an antibiotic, an antimycotic, in the presence or absence of lipoic acid (concentrations ranging from 0.5 μM to 500 μM) for 8-15 hours. Each lens was removed from medium, weighed, and photographed on a micrometer scale. A coverslip of known weight (0.17899±0.00200 g) was placed on the lens, and the lens was photographed again on the micrometer scale. The diameter of each lens with and without the coverslip was determined from the photographs. The change in lens diameter produced by the force (coverslip) was computed ΔD=(Dwithcoverslip−Dwithoutcoverslip).

[2] = system: protein disulfides in the mouse lenses; experiment: Decrease in disulfide bonds: protein SH/SS in lens homogenates by fluorescent alkylation; conditions: FIG. 5, p≦0.05 vs control
Protocol: FIG. 5 depicts a scattergram of the percent of the total protein SH groups in disulfide bonds. Free SH groups were alkylated with 4-acetamido-4′-maleimidylstilbene-2,2′-sulfonic acid (c, 1 μM, 5 μM, 9.6 μM, 50 μM, 96 μM) or 7-diethylamino-3-(4′maleimidylphenyl)-4-methyl coumarin (500 μM, and 500 μM c). Following removal of the first alkylating agent, the S—S bonds were reduced and alkylated with fluorescein-5-maleimide. Absorption spectra were used to calculated total protein (A280 nm), free protein SH (A322 or A384), and protein SS (A490) using the appropriate extinction coefficients. The symbol ‡ indicates statistically significant difference of mean with mean of control (c, p≦0.05).
Mouse lenses were homogenized in a denaturing buffer containing a fluorescent alkylating agent to modify the free SH groups. After removing the alkylating agent homogenates were reduced and alkylated with a different fluorescent alkylating agent. Absorption spectra of the modified proteins were used to calculate free protein SH and protein SS groups.

O=C(O)CCCCC1CCSS1 (stereo not drawn) [lipoic acid, 5-(1,2-dithiolan-3-yl)pentanoic acid]
cytotoxicity (live and dead cells) [1]: not cytotoxic | concentrations causing a statistically significant increase in ΔD (mouse lenses): ≥ 9.6 µM | concentrations causing a statistically significant decrease in protein disulfides [2]: ≥ 9.6 µM
